# Results taken from patent publication US20230277494A1, “TRANS-CROCETIN COMPOSITIONS AND TREATMENT REGIMENS” (priority 2020, published 2023).
# Assays:
# [1] = mouse, in vivo, iv
# [2] = human, in vivo; cited from earlier work
# [3] = Phase 2 clinical study of liposomal trans-crocetin, pharmacokinetics; settings: human, in vivo
# Excerpt: A phase 2 clinical study was initiated to assess the safety and efficacy of liposomal trans-crocetin in patients with acute respiratory distress syndrome due to COVID-19 disease. This was an open label phase II study of treatment with liposomal trans-crocetin in patients who experience severe acute respiratory distress syndrome (ARDS) and were receiving artificial respiratory support due to COVID-19. The purpose of this study was to evaluate the improvement in PaO2/FiO2 by more than 25% in two cohorts of patients treated liposomal trans-crocetin. In the first cohort, patients received trans-crocetin at a dose of 0.25 mg/kg administered as intravenous (IV) bolus every 3 hours. The second cohort was treated by a liposomal formulation containing trans-crocetin. […] Pharmacokinetic assessment was carried out to identify an optimal dose and schedule. […] Secondary outcome measures included (1) proportion of patients with a PaO2/FiO2 ratio above 200 mm Hg (Time Frame: 24, 48 and 72 hours), and (2) all cause mortality (Time Frame: 28 days).
# The primary purpose of this study was to determine a safe dosing regimen of liposomal trans-crocetin and to assess preliminary efficacy as measured by improvement in PaO2/FiO2 by more than 25% in patients treated with liposome encapsulated trans-crocetin, as well as safety and the pharmacokinetic profile of liposome encapsulated trans-crocetin. […]
# [4] = diffusion of oxygen in plasma, FIG. 12; cited from earlier work
SMILES,Cmax [1] [µg/mL],safety in clinical trials [2],AUC and Cmax across a wide range of body weights [3],improvement in diffusion capacity [4] [%]
"CC(/C=C/C=C(\C)C(=O)[O-])=C\C=C\C=C(C)\C=C\C=C(/C)C(=O)[O-].[Na+].[Na+] [STC free drug, sodium trans-crocetinate]",360,no safety concerns,,
CC(/C=C/C=C(\C)C(=O)O)=C\C=C\C=C(C)\C=C\C=C(/C)C(=O)O [trans-crocetin],,,stable levels,30
